Laboratory results from patent US4954512A, “Anti-ulcer composition” (Okamoto; Shosuke, priority 1987, dated 1990).
Where a name gives a salt, the structure may show the parent alone. Where a SMILES comes first, the peptide text is derived from it. [ ]: non-standard residue; d: D form. Trx = NC[C@H]1CC[C@H](C(=O)O)CC1; Sar = CNCC(=O)O

Legend:
[1] = test system: restrictive water immersion stress ulcer; test: Action against restrictive water immersion stress ulcer; format: in vivo, Wistar-strain male rats; conditions: po; rat, 100 mg/kg peroral administration, 7 hours water immersion stress at 23° C.; ulcer length; read-out: Anti-ulcer action (stress ulcer), Inhibition rate against non-administered animal
Experimental: (2) Action against restrictive water immersion stress ulcer Wistar-strain male rats (weight 180 g, 6 to 8 rats per group) were starved for 18 hours before the test. The test drug was administered orally by the same method as used in (1). Thirty minutes after the administration, the rats were placed in a restrictive stress cage, and immersed to the xiphoideus process of the rat in water of 23° C. After the loading stress for 7 hours, the stomach was excised and, fixed in formalin by the same method as used in (1), and the length (mm) of the ulcer was measured. The total length of an ulcer generated per rat was compared with that of the control group. An Ulcer Index was determined as the inhibition ratio (%).

hydrochloric acid ulcer = test: Action against hydrochloric acid ulcer; format: in vivo, Wistar-strain male rats; conditions: po, 1 h; rat, 100 mg/kg peroral administration, 30 min before 0.6 N-HCl; ulcer area; read-out: Anti-ulcer action (hydrochloric acid ulcer model), Inhibition rate against non-administered animal
Experimental: (1) Action against hydrochloric acid ulcer Wistar-strain male rats (weight 180 g, 6 to 7 rats per group) were starved for 18 hours and left without water for 4 hours before the test. The test drug was formed into an aqueous solution or suspended in an aqueous solution of 0.5% carboxymethyl cellulose and administered orally at a volume of 0.5 ml/100 g, and 30 minutes after administration, 1 ml of 0.6 N-HCl was orally administered. One hour after the administration, the stomach was excised and injected with 5 ml of 5% formalin solution. After the formalin fixation for 10 min., the stomach was cut open along the greater curvature, and the area (mm^2) of an ulcer generated at the corpus of stomach was measured. The total sum of the area of ulcer generated per rat was compared with that of the control group. The control group was administered with water or a 0.5% aqueous carboxymethyl cellulose solution. The Ulcer Index was determined as the inhibition ratio (%).

Structure (SMILES)	inhibition in vivo at 100 mg/kg [1]	inhibition in vivo at 100 mg/kg (hydrochloric acid ulcer)
CC1CCC(NC(=O)[C@H](Cc2ccccc2)NC(=O)c2ccc(NC(=N)N)cc2)CC1 (mixture of isomers) [Compound 12, N-(4-guanidinobenzoyl)-L-phenylalanine 4-cis/trans-methylcyclohexylamide hydrochloride]	65.8%	89.4%
CC(=O)c1ccc(NC(=O)C(Cc2cccc(Oc3ccccc3)c2)NC(=O)[C@H]2CC[C@H](CN)CC2)cc1 (mixture of isomers) [Compound 32, N-(trans-4-aminomethylcyclohexylcarbonyl)-3-phenoxy-DL-phenylalanine 4-acetylanilide hydrochloride]	67.4%	86.4%
NC[C@H]1CC[C@H](C(=O)N[C@@H](Cc2ccccc2)C(N)=O)CC1 [Compound 1, N-[trans-4-aminomethylcyclohexyl-carbonyl]-L-phenylalanine amide hydrochloride]	88.2%	77.1%
NCc1ccc(C(=O)N[C@@H](Cc2ccccc2)C(N)=O)cc1 [Compound 2, N-(4-aminomethylbenzoyl)-L-phenyl-alanineamide hydrochloride]	–	58.2%
CCOC(=O)c1ccccc1NC(=O)[C@H](Cc1ccccc1)NC(=O)[C@H]1CC[C@H](CN)CC1 [Compound 3]	52.2%	91.4%
CCOC(=O)C1CCC(NC(=O)[C@H](Cc2ccccc2)NC(=O)[C@H]2CC[C@H](CN)CC2)CC1 (some centres unmarked) [Compound 4]	74.6%	71.4%
CCOC(=O)CNC(=O)[C@H](Cc1ccccc1)NC(=O)[C@H]1CC[C@H](CN)CC1 [Compound 5] (H-[Trx]-Phe-Gly-OEt)	76%	53.3%
CCOC(=O)C1CCCC(NC(=O)[C@H](Cc2ccccc2)NC(=O)[C@H]2CC[C@H](CN)CC2)C1 (some centres unmarked) [Compound 6]	–	77.4%
CNC(=O)[C@H](Cc1ccccc1)NC(=O)[C@H]1CC[C@H](CN)CC1 [Compound 7, N-(trans-4-aminomethylcyclohexyl-carbonyl)-L-phenylalanine methylamide hydrochloride]	–	52.6%
CC(=O)c1ccc(NC(=O)[C@H](Cc2ccccc2)NC(=O)[C@H]2CC[C@H](CN)CC2)cc1 [Compound 8]	65%	73.2%
CN(C)C(=O)[C@H](Cc1ccccc1)NC(=O)[C@H]1CC[C@H](CN)CC1 [Compound 9, N-(trans-4-aminomethylcyclohexyl-carbonyl)-L-phenylalanine dimethylamide hydrochloride]	77.6%	73.6%
CCOC(=O)c1ccc(CNC(=O)[C@H](Cc2ccccc2)NC(=O)[C@H]2CC[C@H](CN)CC2)cc1 [Compound 10]	86.1%	60.4%
CCOC(=O)C1CCN(C(=O)[C@H](Cc2ccccc2)NC(=O)[C@H]2CC[C@H](CN)CC2)CC1 [Compound 11]	85.2%	68.4%
NC[C@H]1CC[C@H](C(=O)N[C@@H](Cc2ccccc2)C(=O)Nc2ccc(C(N)=O)cc2)CC1 [Compound 13, N-(trans-4-aminomethylcyclohexyl-carbonyl)-L-phenylalanine 4-carbamoylanilide hydrochloride]	64.8%	85.7%
NC[C@H]1CC[C@H](C(=O)N[C@@H](Cc2ccccc2)C(=O)Nc2ccc(C(=O)O)cc2)CC1 [Compound 14, N-(trans-4-aminomethylcyclohexylcarbonyl)-L-phenylalanine 4-hydroxycarbonylanilide hydrochloride]	–	74.8%
CC(C)(C)NC(=O)[C@H](Cc1ccccc1)NC(=O)[C@H]1CC[C@H](CN)CC1 [Compound 15]	76.4%	73.1%

Structure (SMILES)	inhibition in vivo at 100 mg/kg [1]	inhibition in vivo at 100 mg/kg (hydrochloric acid ulcer)
CC(=O)c1ccc(NC(=O)[C@H](Cc2ccccc2)NC(=O)c2ccc(CN)cc2)cc1 [Compound 16, N-(4-aminomethylbenzoyl)-L-phenylalanine 4-acetylanilide hydrochloride]	–	96.6%
CN(C)C(=O)[C@H](Cc1ccccc1)NC(=O)c1ccc(CN)cc1 [Compound 17]	–	57.5%
CCOC(=O)c1cccc(NC(=O)[C@H](Cc2ccccc2)NC(=O)[C@H]2CC[C@H](CN)CC2)c1 [Compound 18]	–	89.2%
CN(C)C(=O)[C@H](Cc1ccccc1)NC(=O)[C@H]1CC[C@H](CNC(=N)N)CC1 [Compound 19, N-(trans-4-guanidinomethylcyclohexylcarbonyl)-L-phenylalanine dimethylamide methanesulfonate]	–	52.5%
CCOC(=O)[C@H](CO)NC(=O)[C@H](Cc1ccccc1)NC(=O)[C@H]1CC[C@H](CN)CC1 [Compound 20, Ethyl N-N-(trans-4-aminomethylcyclohexylcarbonyl)-L-phenylalanyl-L-serinate hydrochloride] (H-[Trx]-Phe-Ser-OEt)	70%	54.3%
CCOC(=O)c1ccc(NC(=O)[C@H](Cc2ccccc2)NC(=O)[C@H]2CC[C@H](CN)CC2)cc1 [Compound 21]	–	89.8%
CN(C)C(=O)[C@H](Cc1ccccc1)NC(=O)c1ccc(C(=N)N)cc1 [Compound 22, N-(4-amidinobenzoyl)-L-phenylalanine dimethylamide hydroiodide]	76.2%	86%
CNC(=O)c1ccc(NC(=O)[C@H](Cc2ccccc2)NC(=O)[C@H]2CC[C@H](CN)CC2)cc1 [Compound 23, N-(trans-4-aminomethylcyclohexylcarbonyl)-L-phenylalanine 4-methylcarbamoylanilide hydrochloride]	–	79.9%
CN(C)C(=O)c1ccc(NC(=O)[C@H](Cc2ccccc2)NC(=O)[C@H]2CC[C@H](CN)CC2)cc1 [Compound 24]	70.6%	82.6%
CCOC(=O)CN(C)C(=O)[C@H](Cc1ccccc1)NC(=O)[C@H]1CC[C@H](CN)CC1 [Compound 25] (H-[Trx]-Phe-[Sar]-OEt)	–	57.3%
NC[C@H]1CC[C@H](C(=O)N[C@@H](Cc2ccccc2)C(=O)Nc2cccc(C(N)=O)c2)CC1 [Compound 26]	–	80.8%
NCc1ccc(C(=O)N[C@@H](Cc2ccccc2)C(=O)Nc2ccc(C(N)=O)cc2)cc1 [Compound 27, N-(4-aminomethylbenzoyl)-L-phenylalanine 4-carbamoylanilide hydrochloride]	–	78.1%
N=C(N)c1ccc(C(=O)N[C@@H](Cc2ccccc2)C(=O)Nc2ccc(C(N)=O)cc2)cc1 [Compound 28, N-(4-amidinobenzoyl)-L-phenylalanine 4-carbamoylanilide methanesulfonate]	57.4%	69.8%
CC(=O)c1ccc(NC(=O)[C@H](Cc2ccccc2)NC(=O)c2ccc(C(=N)N)cc2)cc1 [Compound 29]	83.7%	81%
CCOC(=O)CCNC(=O)[C@H](Cc1ccccc1)NC(=O)[C@H]1CC[C@H](CN)CC1 [Compound 30]	–	67.5%
NC[C@H]1CC[C@H](C(=O)N[C@@H](Cc2ccc(OCc3ccccc3)cc2)C(=O)Nc2cccnc2)CC1 [Compound 31]	60%	92.3%
